Assay results as given in US20130078287A1 (Horizon Pharma USA, Inc., priority 2010, published 2013).
Marks after values point to notes of the source that are not given here.

Experiments:
[1] = test system: subjects expected to require daily NSAID therapy; assay: REDUCE-1 study: endoscopically diagnosed gastric, duodenal and UGI ulcers; format: in vivo, human; conditions: for Proportion of subjects with Duodenal Ulcer / Proportion of subjects with Gastric Ulcer / Proportion of subjects with UGI Ulcer / UGI Ulcer: Subjects with Low-dose Aspirin Use / UGI Ulcer: Subjects with Prior Ulcer: REDUCE-1, 24 weeks
Procedure: Subjects were deemed a treatment failure and terminated early from the study in the event they developed an endoscopically diagnosed UGI ulcer. Subjects who terminated early for reasons other than development of an endoscopically diagnosed UGI ulcer were to undergo an endoscopic examination at a termination visit that was conducted as soon as possible after administration of their final dose of study drug. The predefined population for primary analyses of ulcers was all subjects with ≧1 follow-up study endoscopy.

[2] = test system: subjects expected to require daily NSAID therapy; assay: REDUCE-1 study: adverse events
From the text: (§1) Randomization was stratified based on aspirin/anticoagulant therapy and prior ulcer history.
Secondary endpoints were UGI ulcers, duodenal ulcers, and serious GI complications

[3] = test system: subjects expected to require daily NSAID therapy; assay: REDUCE-2 study: adverse events
From the text: as §1
Secondary endpoints were gastric ulcers, duodenal ulcers, and serious GI complications.

[4] = test system: subjects expected to require daily NSAID therapy; assay: Integrated REDUCE-1 and REDUCE-2: adverse events
[5] = test system: subjects expected to require daily NSAID therapy; assay: Pooled REDUCE-1 and REDUCE-2: UGI ulcers by subgroup; format: in vivo, human; conditions: for Subjects who developed an upper gastrointestinal ulcer: clinical studies of HZT-501; for Proportion of subjects who developed at least one UGI ulcer: pooled, Week 24 life table
From the text: In addition to examining potential risk factors together in a statistical model, the effect of treatment was examined in the combined studies overall and within various subgroups of interest. These subgroups included age category (<65, […]), prior history of UGI ulcer (yes, no), use of low-dose aspirin (LDA) (yes, no), and gender. […] Treatment was the only factor included in the model.

[6] = crude proportion, listed as ibuprofen
[7] = life table estimate, listed as ibuprofen
[8] = REDUCE-1, early drop-outs imputed as treatment failures
[9] = integrated REDUCE-1 and REDUCE-2

## CC(C)Cc1ccc(C(C)C(=O)O)cc1 (stereo not shown) [Ibuprofen, 2-(p-isobutylphenyl)propionic acid]
[1]; crude proportion
  Proportion of subjects with Duodenal Ulcer: 14/262 (5.3%);
  Proportion of subjects with Gastric Ulcer: 52/262 (19.8%);
  Proportion of subjects with UGI Ulcer: 61/262 (23.3%)*;
  UGI Ulcer: Subjects with Low-dose Aspirin Use: 10/32 (31.3%);
  UGI Ulcer: Subjects with Prior Ulcer: 4/15 (26.7%);
[1]; [6]
  Proportion of subjects with Duodenal Ulcer: 5.3%
  Proportion of subjects with Gastric Ulcer: 19.8%
  Proportion of subjects with UGI Ulcer: 23.3%
[1]; life table estimate
  Proportion of subjects with Duodenal Ulcer: 7.1%
  Proportion of subjects with Gastric Ulcer: 25.3%
  Proportion of subjects with UGI Ulcer: 29.1%*
  UGI Ulcer: Subjects with Low-dose Aspirin Use: 33.3%
  UGI Ulcer: Subjects with Prior Ulcer: 27.3%
[1]; [7]
  Proportion of subjects with Duodenal Ulcer: 7.1%
  Proportion of subjects with Gastric Ulcer: 25.3%
  Proportion of subjects with UGI Ulcer: 29.1%
[1]; [8]
  Crude ulcer rate, UGI ulcer: 30.2%
  Crude ulcer rate, gastric ulcers: 26.7%
[1]; REDUCE-1, secondary efficacy endpoint
  NSAID associated serious GI complications, % of subjects: none
[2]
  AEs Leading to Discontinuation, Incidence (%): 7.7%
  AEs by Relatedness: Possibly Related, Incidence (%): 23.1%
  AEs by Relatedness: Probably Not Related, Incidence (%): 38.1%
  AEs by Severity: Life Threatening, Incidence (%): 0.7%
  AEs by Severity: Moderate, Incidence (%): 27.1%
  AEs by Severity: Severe, Incidence (%): 7.0%
  Abdominal Pain Upper, Incidence (%): 4.0%
  Any GI Event, Incidence (%): 27.4* %
  Cardiac Disorders, Incidence (%): 1.3%
  Constipation, Incidence (%): 4.3%
  Deaths, Incidence %: 1/0.1%
  Diarrhea, Incidence (%): 4.3%
  Dyspepsia, Incidence (%): 7.7%
  General Disorders/Administrative Site Conditions, Incidence (%): 7.7%
  Hepatobiliary Disorders, Incidence (%): 0.0%
  Hypertension, Incidence (%): 2.3%
  Injury, Poisoning, Procedural Complications, Incidence (%): 6.0%
  Investigations, Incidence (%): 5.0%
  Musculoskeletal/connective Tissue Disorders, Incidence (%): 8.0%
  Nausea, Incidence (%): 4.3%
  Nervous System Disorders, Incidence (%): 7.0%
  Renal and Urinary Disorders, Incidence (%): 1.0%
  Respiratory, Thoracic and Mediastinal Disorders, Incidence (%): 8.7%
  SAEs leading to discontinuation, Incidence %: 2/0.7%
  Subjects with at least one AE, Incidence (%): 61.2%
  Total SAEs, Incidence %: 13/4.3%
  Withdrawals due to GI, Incidence (%): 5.0%
[3]
  AEs Leading to Discontinuation, Incidence (%): 7.1%
  AEs by Severity: Life Threatening, Incidence (%): 0.0%
  AEs by Severity: Moderate, Incidence (%): 21.7%
  AEs by Severity: Severe, Incidence (%): 6.6%
  Abdominal Pain Upper, Incidence (%): 1.9%
  Any GI Event, Incidence (%): 29.7* %
  Cardiac Disorders, Incidence (%): 0.5%
  Constipation, Incidence (%): 3.8%
  Deaths, Incidence %: 0/0.0%
  Diarrhea, Incidence (%): 4.2%
  Dyspepsia, Incidence (%): 8.5** %
  General Disorders/Administrative Site Conditions, Incidence (%): 3.8%
  Hepatobiliary Disorders, Incidence (%): 0.0%
  Hypertension, Incidence (%): 1.9%
  Infections/Infestations, Incidence (%): 19.3%
  Injury, Poisoning, Procedural Complications, Incidence (%): 3.8%
  Investigations, Incidence (%): 2.4%
  Musculoskeletal/connective Tissue Disorders, Incidence (%): 5.2%
  Nausea, Incidence (%): 5.2%
  Nervous System Disorders, Incidence (%): 4.7%
  Renal and Urinary Disorders, Incidence (%): 0.0%
  Respiratory, Thoracic and Mediastinal Disorders, Incidence (%): 4.7%
  SAEs leading to discontinuation, Incidence %: 2/0.9%
  Subjects with at least one AE, Incidence (%): 54.7%
  Total SAEs, Incidence %: 4/1.9%
  Withdrawals due to GI, Incidence (%): 5.2*** %
[4]; [9]
  AEs Leading to Discontinuation, Incidence (%): 7.6%
  AEs by Relatedness: Possibly Related, Incidence (%): 25.0%
  AEs by Relatedness: Probably Not Related, Incidence (%): 33.7%
  AEs by Severity: Life Threatening, Incidence (%): 0.4%
  AEs by Severity: Moderate, Incidence (%): 25.0%
  AEs by Severity: Severe, Incidence (%): 6.8%
  Subjects with at least one AE, Incidence (%): 58.7%
[4]; integrated, safety population
  TEAE: Abdominal distension: 1.4 (7) %
  TEAE: Abdominal pain: 1.6 (8) %
  TEAE: Abdominal pain upper: 2.5 (13) %
  TEAE: Abdominal tenderness: 1.0 (5) %
  TEAE: Anaemia: 1.4 (7) %
  TEAE: Arthralgia: 1.8 (9) %
  TEAE: Back pain: 0.8 (4) %
  TEAE: Blood and lymphatic system disorders: 1.8 (9) %
  TEAE: Bronchitis: 1.2 (6) %
  TEAE: Constipation: 4.1 (21) %
  TEAE: Cough: 2.0 (10) %
  TEAE: Diarrhoea: 4.3 (22) %
  TEAE: Dizziness: 1.4 (7) %
  TEAE: Dyspepsia: 8.0 (41) %
  TEAE: Dyspnoea: 1.0 (5) %
  TEAE: Fall: 1.0 (5) %
  TEAE: Fatigue: 1.0 (5) %
  TEAE: Flatulence: 0.4 (2) %
  TEAE: Gastritis: 1.4 (7) %
  TEAE: Gastro-oesophageal reflux disease: 3.1 (16) %
  TEAE: Gastroenteritis viral: 0.8 (4) %
  TEAE: Gastrointestinal disorders: 28.4 (145) %
  TEAE: General disorders and administration site conditions: 4.5 (23) %
  TEAE: Headache: 3.3 (17) %
  TEAE: Hypertension: 2.2 (11) %
  TEAE: Infections and infestations: 20.7 (106) %
  TEAE: Influenza: 1.6 (8) %
  TEAE: Injury, poisoning and procedural complications: 5.1 (26) %
  TEAE: Insomnia: 1.0 (5) %
  TEAE: Muscle spasms: 0.4 (2) %
  TEAE: Musculoskeletal and connective tissue disorders: 6.8 (35) %
  TEAE: Musculoskeletal pain: 0.8 (4) %
  TEAE: Nasopharyngitis: 2.7 (14) %
  TEAE: Nausea: 4.7 (24) %
  TEAE: Nervous system disorders: 6.1 (31) %
  TEAE: Oedema peripheral: 1.8 (9) %
  TEAE: Pain in extremity: 0.8 (4) %
  TEAE: Pharyngolaryngeal pain: 1.2 (6) %
  TEAE: Psychiatric disorders: 3.1 (16) %
  TEAE: Rash: 1.0 (5) %
  TEAE: Respiratory, thoracic and mediastinal disorders: 7.0 (36) %
  TEAE: Sinus congestion: 1.4 (7) %
  TEAE: Sinusitis: 2.7 (14) %
  TEAE: Skin and subcutaneous tissue disorders: 3.5 (18) %
  TEAE: Stomach discomfort: 1.6 (8) %
  TEAE: Upper respiratory tract infection: 4.1 (21) %
  TEAE: Urinary tract infection: 2.3 (12) %
  TEAE: Vascular disorders: 2.7 (14) %
  TEAE: Vomiting: 1.8 (9) %
  Total Subjects With at Least One TEAE: 58.7 (300) %
[5]; subjects who used low-dose aspirin
  Subjects who developed an upper gastrointestinal ulcer: 35%
[5]; subjects with a prior history of gastrointestinal ulcer
  Subjects who developed an upper gastrointestinal ulcer: 24%
[5]; Age <65 years
  Proportion of subjects who developed at least one UGI ulcer: 26.3%
[5]; Age ≧65 years
  Proportion of subjects who developed at least one UGI ulcer: 26.6%
[5]; Age ≧65 years, listed as ibuprofen
  Proportion of subjects who developed at least one UGI ulcer: 27%
[5]; Female
  Proportion of subjects who developed at least one UGI ulcer: 28.3%
[5]; Race Other
  Proportion of subjects who developed at least one UGI ulcer: 13.3%
